Reference: PMC11189555, “Aryl amino acetamides prevent Plasmodium falciparum ring development via targeting the lipid-transfer protein PfSTART1” (Nature Communications, 2024)
Read-outs that look alike come from different tables or passages of the source.

How the values were obtained:
[1] = tested on: PopD-D7 M-833 resistant clone (PfSTART1 N309K); assay: Growth inhibition assay (72 h, LDH activity); assay type: cell-based, Plasmodium falciparum; conditions: for inhibition at 0.0390625 µM / inhibition at 0.078125 µM / inhibition at 0.15625 µM / inhibition at 0.3125 µM / inhibition at 0.625 µM / inhibition at 1.25 µM / inhibition at 2.5 µM / inhibition at 5 µM / inhibition at 10 µM / EC50: Plasmodium falciparum; for (av-uRBC) / (DMSO-uRBC) x100: PopD-D7
Description: (§1) The drug was then removed, and parasites were allowed to recover. Another cycle of drug treatment (3 μM M-833) was then resumed. The resistant lines were cloned out by limiting dilution (diluting the culture into a 96-well plate to achieve an average of ~0.3 parasites per well), prior to growth inhibition assays and genomic DNA (gDNA) extraction (DNeasy Blood and Tissue kit (Qiagen)[18].
(§2) Parasite growth assays with inhibitory compounds were performed as per[11] and are fully described in the Supplementary Information. […]
(§3) Growth inhibition assays. Synchronised ring-stage parasites (0.3-0.6% parasitemia, 2% haematocrit) were grown for 72 h in a serial-dilution of the compound under […]
(§4) and compound 4. Note that M-833 was first purchased from MolPort (MolPort -002-267-916) then made in-house at WEHI: the differences observed in EC50s across experiments are attributed to the different batches of M -833. For some experiments, 0, 0.25 or 2.5 mM of glucosamine (GlcN) was also added. Experiments were set up in technical duplicates or triplicates. Following a freeze -thaw cycle, lactate dehydrogenase (LDH) activity was assessed as an indicator of parasite growt h 5. 30 μL of parasite culture was incubated for 30 min in the dark with 75 μL Malstat mixture (0.1 M Tris pH 9.0, 20 g/L lactic acid, pH 7.5, 0.2% Triton-X100, 0.5 g/L acetylpyridine adenine dinucleotide (APAD, Sigma), 200 μg/mL nitroblue tetrazolium (NBT; Sigma), 1 μg/mL phenozine ethosulfate (PES; Sigma)). Absorbance was then measured at 650 nm, transformed using the formula below, plotted against the logarithm of the concentrations, and a non-linear regression (log(inhibitor) vs. response, variable slope) was calculated using GraphPad Prism to assess the half-inhibitory […]
(§5) Growth inhibition % = (1 − average(sample)− average(uRBC)) ∗ 100 […]
(§6) The DMSO samples were also used to assess growth of parasite in the presence of 0.25 and 2.5 mM GlcN (normalised by DMSO in 0 mM GlcN). […]

in vitro = conditions: human
[2] = tested on: PopE-F10 M-833 resistant clone (PfSTART1 N330K); assay: Growth inhibition assay (72 h, LDH activity); assay type: cell-based, Plasmodium falciparum
Description: as §1, §2, §3, §4, §5, §6

[3] = M-833 0.0390625 uM, PopD-D7 replicate 1
[4] = M-833 0.0390625 uM, PopD-D7 replicate 3
[5] = M-833 0.078125 uM, PopD-D7 replicate 1
[6] = M-833 0.078125 uM, PopD-D7 replicate 3
[7] = M-833 0.15625 uM, PopD-D7 replicate 1
[8] = M-833 0.15625 uM, PopD-D7 replicate 3
[9] = M-833 0.3125 uM, PopD-D7 replicate 1
[10] = M-833 0.3125 uM, PopD-D7 replicate 3
[11] = M-833 0.625 uM, PopD-D7 replicate 1
[12] = M-833 0.625 uM, PopD-D7 replicate 3
[13] = M-833 1.25 uM, PopD-D7 replicate 1
[14] = M-833 1.25 uM, PopD-D7 replicate 3
[15] = M-833 2.5 uM, PopD-D7 replicate 1
[16] = M-833 2.5 uM, PopD-D7 replicate 3
[17] = M-833 5 uM, PopD-D7 replicate 1
[18] = M-833 5 uM, PopD-D7 replicate 3
[19] = M-833 10 uM, PopD-D7 replicate 1
[20] = M-833 10 uM, PopD-D7 replicate 3

## Cc1cc(Cl)c(S(=O)(=O)N2CCCC2)cc1OCC(=O)NC1CCCCC1 [M-833]
[1]; [3]
  Normalised to DMSO: 102.734
  inhibition at 0.0390625 µM: -2.73%
[1]; [4]
  Normalised to DMSO: 100.987
  inhibition at 0.0390625 µM: -0.987%
[1]; [5]
  Normalised to DMSO: 102.828
  inhibition at 0.078125 µM: -2.83%
[1]; [6]
  Normalised to DMSO: 101.481
  inhibition at 0.078125 µM: -1.48%
[1]; [7]
  Normalised to DMSO: 103.677
  inhibition at 0.15625 µM: -3.68%
[1]; [8]
  Normalised to DMSO: 99.9013
  inhibition at 0.15625 µM: 0.0987%
[1]; [9]
  Normalised to DMSO: 100.66
  inhibition at 0.3125 µM: -0.66%
[1]; [10]
  Normalised to DMSO: 100.592
  inhibition at 0.3125 µM: -0.592%
[1]; [11]
  Normalised to DMSO: 98.7744
  inhibition at 0.625 µM: 1.23%
[1]; [12]
  Normalised to DMSO: 98.815
  inhibition at 0.625 µM: 1.18%
[1]; [13]
  Normalised to DMSO: 99.0572
  inhibition at 1.25 µM: 0.943%
[1]; [14]
  Normalised to DMSO: 95.26
  inhibition at 1.25 µM: 4.74%
[1]; [15]
  Normalised to DMSO: 95.8517
  inhibition at 2.5 µM: 4.15%
[1]; [16]
  Normalised to DMSO: 89.6313
  inhibition at 2.5 µM: 10.4%
[1]; [17]
  Normalised to DMSO: 85.4808
  inhibition at 5 µM: 14.5%
[1]; [18]
  Normalised to DMSO: 79.5589
  inhibition at 5 µM: 20.4%
[1]; [19]
  Normalised to DMSO: 58.4224
  inhibition at 10 µM: 41.6%
[1]; [20]
  Normalised to DMSO: 50.0329
  inhibition at 10 µM: 50%
[1]; read-out: EC50 (95% confidence interval)
  EC50: 9.95 µM
[1]; Supplementary Table 1, PopD-D7 (N309K), 72 h, read-out: EC50
  EC50: 4.88 µM
[1]; conc. 3.04832 nM, Biological replicate 1 (2021-10-25)
  (av-uRBC) / (DMSO-uRBC) x100: 106.031
[1]; conc. 3.04832 nM, Biological replicate 2 (2021-11-03)
  (av-uRBC) / (DMSO-uRBC) x100: 107.379
[1]; conc. 3.04832 nM, Biological replicate 3 (2021-11-11)
  (av-uRBC) / (DMSO-uRBC) x100: 132.053
[1]; conc. 9.14495 nM, Biological replicate 1 (2021-10-25)
  (av-uRBC) / (DMSO-uRBC) x100: 108.232
[1]; conc. 9.14495 nM, Biological replicate 2 (2021-11-03)
  (av-uRBC) / (DMSO-uRBC) x100: 108.229
[1]; conc. 9.14495 nM, Biological replicate 3 (2021-11-11)
  (av-uRBC) / (DMSO-uRBC) x100: 134.103
[1]; conc. 27.4348 nM, Biological replicate 1 (2021-10-25)
  (av-uRBC) / (DMSO-uRBC) x100: 109.088
[1]; conc. 27.4348 nM, Biological replicate 2 (2021-11-03)
  (av-uRBC) / (DMSO-uRBC) x100: 108.743
[1]; conc. 27.4348 nM, Biological replicate 3 (2021-11-11)
  (av-uRBC) / (DMSO-uRBC) x100: 131.145
[1]; conc. 82.3045 nM, Biological replicate 1 (2021-10-25)
  (av-uRBC) / (DMSO-uRBC) x100: 105.921
[1]; conc. 82.3045 nM, Biological replicate 2 (2021-11-03)
  (av-uRBC) / (DMSO-uRBC) x100: 106.368
[1]; conc. 82.3045 nM, Biological replicate 3 (2021-11-11)
  (av-uRBC) / (DMSO-uRBC) x100: 120.919
[1]; conc. 246.914 nM, Biological replicate 1 (2021-10-25)
  (av-uRBC) / (DMSO-uRBC) x100: 104.521
[1]; conc. 246.914 nM, Biological replicate 2 (2021-11-03)
  (av-uRBC) / (DMSO-uRBC) x100: 107.825
[1]; conc. 246.914 nM, Biological replicate 3 (2021-11-11)
  (av-uRBC) / (DMSO-uRBC) x100: 115.806
[1]; conc. 740.741 nM, Biological replicate 1 (2021-10-25)
  (av-uRBC) / (DMSO-uRBC) x100: 96.6483
[1]; conc. 740.741 nM, Biological replicate 2 (2021-11-03)
  (av-uRBC) / (DMSO-uRBC) x100: 106.073
[1]; conc. 740.741 nM, Biological replicate 3 (2021-11-11)
  (av-uRBC) / (DMSO-uRBC) x100: 111.809
[1]; conc. 2222.22 nM, Biological replicate 1 (2021-10-25)
  (av-uRBC) / (DMSO-uRBC) x100: 83.9595
[1]; conc. 2222.22 nM, Biological replicate 2 (2021-11-03)
  (av-uRBC) / (DMSO-uRBC) x100: 95.9821
[1]; conc. 2222.22 nM, Biological replicate 3 (2021-11-11)
  (av-uRBC) / (DMSO-uRBC) x100: 68.0249
[1]; conc. 6666.67 nM, Biological replicate 1 (2021-10-25)
  (av-uRBC) / (DMSO-uRBC) x100: 42.8085
[1]; conc. 6666.67 nM, Biological replicate 2 (2021-11-03)
  (av-uRBC) / (DMSO-uRBC) x100: 58.8022
[1]; conc. 6666.67 nM, Biological replicate 3 (2021-11-11)
  (av-uRBC) / (DMSO-uRBC) x100: 17.0257
[1]; conc. 20000 nM, Biological replicate 1 (2021-10-25)
  (av-uRBC) / (DMSO-uRBC) x100: 9.309
[1]; conc. 20000 nM, Biological replicate 2 (2021-11-03)
  (av-uRBC) / (DMSO-uRBC) x100: 11.2449
[1]; conc. 20000 nM, Biological replicate 3 (2021-11-11)
  (av-uRBC) / (DMSO-uRBC) x100: 4.179
[1]; PopD-D7 replicate 1, M-833 0.0390625 uM
  Normalised to DMSO: 0.8625
[1]; PopD-D7 replicate 1, M-833 0.078125 uM
  Normalised to DMSO: -4.169
[1]; PopD-D7 replicate 1, M-833 0.15625 uM
  Normalised to DMSO: -1.581
[1]; PopD-D7 replicate 1, M-833 0.3125 uM
  Normalised to DMSO: -1.15
[1]; PopD-D7 replicate 1, M-833 0.625 uM
  Normalised to DMSO: -0.1437
[1]; PopD-D7 replicate 1, M-833 1.25 uM
  Normalised to DMSO: -3.594
[1]; PopD-D7 replicate 1, M-833 2.5 uM
  Normalised to DMSO: 7.619
[1]; PopD-D7 replicate 1, M-833 5 uM
  Normalised to DMSO: 28.7494
[1]; Supplementary Table 1, EC50 on PopD-D7 vs 3D7
  Fold change compared to 3D7: 31 fold
In vitro
  CC50: > 40 µM
[2]; M-833 0.0390625 uM, Pop E-F10 replicate 1
  Normalised to DMSO: 109.097
[2]; M-833 0.0390625 uM, Pop E-F10 replicate 3
  Normalised to DMSO: 103.799
[2]; M-833 0.078125 uM, Pop E-F10 replicate 1
  Normalised to DMSO: 108.039
[2]; M-833 0.078125 uM, Pop E-F10 replicate 3
  Normalised to DMSO: 104.854
